# Measurements from patent publication US9480750B2, “Preparation of antibody or an antibody fragment targeted immunoliposomes for systemic administration of therapeutic or diagnostic agents and uses thereof” (GEORGETOWN UNIVERSITY, priority 1999, dated 2016).
# Structures can show the parent of a compound that is named as a salt. Where two headings read alike, the source gives them in different places.
# Key:
# cleaved caspase-3 = test: Western blot of cleaved caspase-3 from mice serum; format: in vivo, C57BL/6 mice; settings: CDDP alone
# Method: The blood collected from the retroorbital sinus of mice was centrifuged at 1,000 rpm for 10 minutes at room temperature after coagulation at room temperature for 1 hr. The serum was transferred to a new tube and centrifuged again at 10,000 g for 20 minutes. The supernatant serum was purified using a P-30 Micro-Bio-Spin Chromatography Column (BIORAD, Hercules, Calif.). Fifteen microliters of the fractions was loaded on a 4% to 12% gradient NuPAGE gel (Invitrogen Life Technologies, Carlsbad, Calif.) and run until the 10 kDa protein marker has run off the gel (approximately 1.5 to 2 hours). After electrophoresis, the proteins were transferred onto a Protran BA 85 nitrocellulose transfer membrane (Schleicher and Schuell, BioScience, Keene, N. H.). Finally, a Western blot analysis for cleaved caspase-3 was performed with cleaved caspase-3 (17 kD) antibody. To block nonspecific binding, the membrane was incubated at room temperature for 1 hour with 5% nonfat dry milk in 10 mM Tris-HCl buffer, pH 8.0, containing 150 mM NaCl and 0.05% Tween 20 (TBST). […] The protein was detected using goat antirabbit secondary antibody (Jackson ImmunoResearch Laboratories, West Grove, Pa.), ECL Western blotting detection reagent, and Hyperfilm ECL (Amersham, Piscataway, N.J.).
# [1] = system: normal skin fibroblast cell line H500
# [2] = TARCEVA plus gemcitabine; cited from earlier work
# [3] = system: MDA-MB-435 human melanoma cells; test: In vitro chemosensitization, XTT; format: cell-based
# [4] = system: DU145 human prostate cancer cells; test: In vitro chemosensitization, XTT; format: cell-based
# [5] = administered orally; cited from earlier work
# [6] = cited from earlier work
# [7] = system: Panc I subcutaneous xenograft tumors; test: In vivo chemosensitization of pancreatic xenograft; parameters: species or system mice; settings: GEMZAR alone, intraperitoneally
# Method: To show the universality of this delivery system two different human xenograft mouse tumor models (pancreatic cancer and breast cancer) were employed. In the first (FIG. 10A) Panc I subcutaneous xenograft tumors were induced in female athymic nude (NCR nu/nu) mice. When the tumors were 100-200 mm^3 in size the animals were injected with the chemotherapeutic agent GEMZAR® (intraperitoneally) and with […]-2 prepared by the method of this invention (I.V.). […] In addition to the I.V. injections the complex described above also was intratumorally injected. One group of animals received GEMZAR® only and a second control group received GEMZAR® plus the complex carrying empty vector.
# advanced NSCLC = settings: previously-treated advanced NSCLC; cited from earlier work
# [8] = system: normal human lung fibroblasts IMR-90; test: In vitro chemosensitization of normal cells, XTT; format: cell-based; settings: 2.5 uM Sunitinib malate, FIG. 43A-C
# Method: The above sensitization results with B16/F10 and MDA-MB-435 were dramatically different from the results with normal human lung fibroblasts IMR-90 under the same conditions. […] The ratio of single-chain antibody fragment to liposome in each complex was 1:30 (w:w). […] After 48 hours, XTT assays were performed to assess cell viability in response to treatments. Each point represents the mean of triplicate samples±standard deviation. […] UT=untransfected.
structure (smiles),measurement,setting,value
"[NH2][Pt]([NH2])([Cl])[Cl] [CDDP, cisplatin]",cleaved caspase-3 in serum,cleaved caspase-3,only a weak band
"C#Cc1cccc(Nc2ncnc3cc(OCCOC)c(OCCOC)cc23)c1 [Erlotinib, N-(3-ethynylphenyl)-6,7-bis(2-methoxyethoxy)-4-quinazolinamine]","sensitization to Mitoxantrone, TAXOTERE or Gemcitabine","[1]; 7.5 uM Erlotinib, FIG. 36A-C",no significant increase in sensitization
same,Diarrhea,[2],48%
same,Rash,[2],69%
same,"dose reductions due to rash and diarrhea, each",[2],two percent
same,study discontinuation due to rash and diarrhea,[2],up to one percent
same,sensitization to TAXOTERE,[3]; free Erlotinib,only minimal effect
same,sensitization to Mitoxantrone,[4]; 3.75 uM Erlotinib,does not sensitize the cells to Mitoxantrone
same,sensitization to Mitoxantrone,[4]; 7.5 uM Erlotinib,had no effect on the response to the chemotherapeutic agent
same,half-lives,[5],~36 h
same,incidence of ILD-like events,[6]; NSCLC single-agent trial,0.8%
same,Grade 3/4 diarrhea,"[6]; monotherapy 150 mg, NSCLC",6%
same,Grade 3/4 rash,"[6]; monotherapy 150 mg, NSCLC",9%
same,"patients discontinuing due to rash or diarrhea, each","[6]; monotherapy 150 mg, NSCLC",1%
"Nc1ccn([C@@H]2O[C@H](CO)[C@@H](O)C2(F)F)c(=O)n1 [GEMZAR®, gemcitabine HCl]",tumor growth,[7],not able to significantly inhibit pancreatic tumor growth
"COc1cc2ncnc(Nc3ccc(F)c(Cl)c3)c2cc1OCCCN1CCOCC1 [Geftinib, Gefitinib]",patients achieving tumor shrinkage or stabilization of their tumor,advanced NSCLC,Approximately 50%
same,sensitization to TAXOTERE,"[3]; free Geftinib, 15 µM",did not sensitize the cells at all
same,half-lives,[5],~46 h
Cc1ccc(NC(=O)c2ccc(CN3CCN(C)CC3)cc2)cc1Nc1nccc(-c2cccnc2)n1 [Imatinib Mesylate],sensitization to TAXOTERE,[3]; 20 uM Imatinib Mesylate,does not sensitize the cells
CCN(CC)CCNC(=O)c1c(C)[nH]c(/C=C2\C(=O)Nc3ccc(F)cc32)c1C [Sunitinib malate],"sensitization to Mitoxantrone, TAXOTERE or Gemcitabine","[1]; 2.5 or 5 uM Sunitinib malate, FIG. 42A-C",no significant increase in sensitization
same,"sensitization to Mitoxantrone, TAXOTERE or Gemcitabine",[8],no significant increase in sensitization
same,sensitization to Mitoxantrone,[4]; 5 μM free Sunitinib malate,only minimal effect on sensitization
